# Source: patent US20080299239A1, “Inhibitor of Glucose Absorption and Method for Producing the Same” (NICHIREI FOODS INC., priority 2003, published 2008)
# System: Caco-2 cells
# Assay: Test of glucose uptake by cultured Caco-2 cells derived from human intestinal tract
# Type: cell-based
# Conditions: 250 μg/ml, 15 min preincubation, 10 min incubation, differentiated Caco-2 cells; for glucose transportation (3H-labeled glucose uptake): FIG. 1, relative to control; for 3-O-methyl glucose transportation (3H-labeled uptake): FIG. 2, relative to control
# Experimental: Cultured Caco-2 cells derived from human intestinal tracts were monolayer-cultured on a plate for about 10 days and then differentiated. A DMEM medium containing 10% fetal calf serum was used. Pigment 1 and pigment 2 (250 μg/ml each) were added to the differentiated Caco-2 cells, the resultants were preincubated for 15 minutes, and ^3H-labeled glucose or 3-O-methyl glucose was then added thereto, followed by incubation for 10 minutes. ^3H incorporated into the cells was analyzed to determine the amount of glucose or methyl glucose transported.
SMILES,glucose transportation (3H-labeled glucose uptake),3-O-methyl glucose transportation (3H-labeled uptake)
"C[C@@H]1O[C@@H](Oc2cc3c(O)cc(O)cc3[o+]c2-c2ccc(O)c(O)c2)[C@H](O)[C@H](O)[C@H]1O.[Cl-] [pigment 1, cyanidin-3-rhamnoside]",specifically inhibited,specifically inhibited
"CC1O[C@@H](Oc2cc3c(O)cc(O)cc3[o+]c2-c2ccc(O)cc2)[C@@H](O)C(O)[C@H]1O (stereo partly shown) [pigment 2, pelargonidin-3-rhamnoside]",specifically inhibited,specifically inhibited
